Measured values published in US6218430A, “Vitamin D3 mimics” (Ligand Pharmaceuticals Incorporated, priority 1998, dated 2001).
pEC50, pIC50, pKi: −log10 of the molar value. “Also recorded” adds a separate entry of the source. Read-outs that look alike come from different tables or passages of the source.

Experiments:
[1] = tested on: SK-BR-3 breast cancer cells; experiment: Breast cancer cell growth inhibition (BrdU); format: cell-based; conditions: Homo sapiens, SK-BR-3, 72 h, BrdU incorporation, 3-day assay
Protocol: (§1) Cancer cell growth inhibition and analysis. SK-BR-3 human breast cancer cells (ATCC) and LNCaP human prostate cancer cells (ATCC) were plated in 96-well, flat-bottomed microtiter plates (CoStar) with 50 μL serum-containing media/well. […] Cell plating numbers (cells/well) were as follows: SK-BR-3, 3000 (3-day assays); LNCAP, 1000 (4-day assays). Cell plating number was determined by growth rate of each cell line and duration of the assay. […] Cells were allowed to adhere for 24 h prior to compound addition as follows:
(§2) Ten-fold serial dilutions were performed with changing of pipette tips between each dilution. Diluted compounds were then added to the cells (50 μL/well) to final concentrations of 1×10^-5 -1×10^-11 M (1% ethanol) in triplicate. […] BrdU (5-bromo-2'-deoxyuridine) incorporation was analyzed as a measure of DNA replication (Cell Proliferation ELISA kit, Boehringer) and absorbance was measured at 450 nm.
(§3) One row of wells contained media only and these absorbance values were averaged as background and then subtracted from absorbance values from each individual well containing cells. The average values were then determined for each triplicate and plotted vs ligand concentration. The average vehicle (1% ethanol) value was determined, less the background average. […] Potency (EC50) was determined as the concentration of compound that elicited half-maximal response.

[2] = In vivo calcium potential: serum calcium (colorimetric); parameters: species or system mouse (Balb/c mice); conditions: oral gavage
Protocol: (§4) In vivo gene regulation and calcium potential. Balb/c mice (male 6-8 weeks old, ~20 g) were fed a vitamin D deficient, calcium replete diet (Purina Mills) for 7-14 days prior to receiving treatment with compounds. Animals were housed under normal lighting. Compounds were administered in sesame oil vehicle with 4% ethanol by oral gavage (0.1 mL dose volume). […] On the final day of dosing, 4-6 h after the final dose, animals were euthanized, the kidneys removed and blood collected. Serum was prepared from the blood and calcium determination performed by colorimetric assay (Sigma). […] 15-20 μg total RNA was utilized in Northern blot analysis using rat 24(OH)ase probe; GAPDH probe was used to normalize for RNA loading, as described previously (Id). Quantitation was by PhosphorImager analysis.

[3] = tested on: Normal human epidermal keratinocytes (NHEK); experiment: Keratinocyte growth inhibition (BrdU); format: cell-based; conditions: 96 h, BrdU incorporation, day 4
Protocol: as §2, §3
Keratinocyte growth inhibition. Normal human epidermal keratinocytes (NHEK) were grown according to vendor specifications (Clonetics, San Diego). BrdU assays were performed as above except that cells were plated at 200 cells per well (96-well plates) and fresh media with ligands were added on day 0 and day 2; BrdU assays were run on day 4.

[4] = tested on: LNCaP prostate cancer cells; experiment: Prostate cancer cell growth inhibition (BrdU); format: cell-based; conditions: Homo sapiens, 96 h, BrdU incorporation, 4-day assay
Protocol: as §1, §2, §3

[5] = tested on: HL60 cells; experiment: Leukemic cell differentiation (NBT and CD14); format: cell-based; conditions: Homo sapiens, HL-60, 120 h; NBT and CD14 assays; differentiation into macrophages/monocytes; 5 days
Protocol: Leukemic cell differentiation. […] Ligands were added in ethanol vehicle (1%) at various concentrations for 5 days without changing the media. On the fifth day, cells were harvested and assayed for markers of differentiation. […] Cells that bioreduce the dye turn blue-black and represent differentiated cells, and are counted. Undifferentiated cells are clear and are also counted; percent differentiated cells are then determined from the two numbers.

[6] = target: serum DBP; experiment: Serum DBP binding, rat or human serum, species not given; conditions: rat (r) or human (h) serum DBP, not marked (r)/(h); competition with [3H]-25(OH)D3
Protocol: Serum DBP-binding. DPB competition binding assays were performed by a literature method (Dusso et al. 1991). The source of DBP was either human serum (Scantibodies) or rat serum (Gibco-BRL) diluted 1:10,000 in sodium phosphate buffer (pH 7.4). Sera were incubated for 2 h at 4° C. with 2 nM [^3 H]-25(OH)D3 (Amersham) with and withoun unlabeled 25(OH)D3 or 1,25(OH)2D3 (0.01 nM-1 μM), or unlabeled vitamin D mimic compounds (10 nM-10 μM). Bound ligand was separated from unbound ligand with Dextran-coated charcoal in gelatin-phosphate buffer.

[7] = target: T1, human VDR (Homo sapiens, UniProt P11473); experiment: Cotransactivation (CTF) in Hep G2 cells, VDRE-luciferase reporter; format: cell-based; parameters: expressed in transfected cells; host or cells: Hep G2 (human hepatoma, ATCC)
T1 sequence (P11473 1-427): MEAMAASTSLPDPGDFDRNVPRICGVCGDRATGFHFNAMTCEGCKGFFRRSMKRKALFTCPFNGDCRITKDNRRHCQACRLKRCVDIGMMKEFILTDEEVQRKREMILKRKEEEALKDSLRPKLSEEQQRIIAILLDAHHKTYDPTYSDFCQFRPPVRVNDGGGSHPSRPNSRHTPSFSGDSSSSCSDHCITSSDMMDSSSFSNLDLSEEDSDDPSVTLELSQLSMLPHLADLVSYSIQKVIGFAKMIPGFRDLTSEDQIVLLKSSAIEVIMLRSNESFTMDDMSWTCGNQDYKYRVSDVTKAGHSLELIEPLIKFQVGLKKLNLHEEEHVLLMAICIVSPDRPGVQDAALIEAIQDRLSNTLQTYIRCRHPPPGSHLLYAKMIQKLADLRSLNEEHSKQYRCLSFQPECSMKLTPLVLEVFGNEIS
Protocol: Cotransactivation properties. […] Reporter and receptor containing vectors were transfected along with carrier DNA and β-galactosidase internal control plasmid as previously described except that Hep G2 cells were used (Id). Briefly, transfections were performed in triplicate in 96-well gelatin-coated plates with a total of 20 μg/mL DNA (0.5 μg receptor expression vector, 5 μg reported plasmid, 5 μg β-galactosidase plasmid, and pGEM carrier DNA to 20 μg) of calcium phosphate-HEPES transfection solution. […] Luciferase values were normalized with β-galactosidase values to control for variable transfection efficiencies.

[8] = Serum calcium in LNCaP tumor-bearing nude mice; format: in vivo; conditions: 3 mg/kg and 10 mg/kg, days 10 and 15
Protocol: FIGS. 1A and 1B depict the In vivo efficacy of compound 4 in LNCaP tumor growth inhibition in nude mice without hypercalcemia.
(§5) In vivo efficacy. Nude mice (6 weeks old) were housed under normal light and fed a vitamin D deficient, calcium replete diet (Purina Mills) for 7-10 days prior to injection with LNCaP cells. Tumors were allowed to grow 2-4 weeks prior to dosing. Compounds or vehicle were administered in sesame oil by oral gavage (0.1 mL dose volume). Dosing was daily for the extent of the study. Tumor measurements were taken on days 10 and 15. Animals were then euthanized, and kidneys and blood retrieved. Serum calcium measurements were taken from the final bleed and an intermediate bleed on day 10. […] Average animal weight change per group was as follows: Vehicle, -7.2%; Compound 4 (3 mg/kg), -2.1%; Compound 4 (10 mg/kg), -8.9%.

[9] = tested on: 24(OH)ase; experiment: In vivo gene regulation: kidney 24(OH)ase RNA induction (Northern blot); parameters: species or system mouse (Balb/c mice); conditions: for Relative 24(OH)ase activity: oral gavage, vehicle 1, corrected with GAPDH
Protocol: as §4

[10] = target: T1, human VDR; experiment: biochemical
Protocol: VDR binding. […] Cell extracts from yeast transformants were prepared and full length VDR expression was confirmed by Western blotting. […] Binding buffer contained 10 mM Tris,pH 7.5, 1 mM DTT, and 0.4 M KCl; wash buffer contained 10 mM Tris, 100 mM KCl, and 10 mM CHAPS detergent.

[11] = Animal weight change in LNCaP tumor-bearing nude mice; format: in vivo; conditions: vehicle -7.2%
Protocol: as §5

[12] = tested on: LNCaP tumor; experiment: In vivo efficacy: LNCaP tumor growth in nude mice; parameters: species or system LNCaP human prostate cancer cells in nude mice
Protocol: as §5

[13] = cotransfected VDRE-luciferase reporter and human VDR in Hep G2 cells, read-out: CTF EC50

C=C1/C(=C\C=C2/CCC[C@]3(C)[C@@H]([C@H](C)CCCC(C)(C)O)CC[C@@H]23)C[C@@H](O)C[C@@H]1O [1,25(OH)2 D3, 1,25-dihydroxyvitamin D3, reference compound]
pEC50 [1]: 8.00 to 8.10
Serum Ca2+ ([2]; 3-day treatment, 15 μg/kg, statistically different than vehicle (p < 0.01)): > 15 mg/dL
Serum Ca2+ ([2]; 5-day treatment, 2 μg/kg): 9.7 ± 0.6 mg/dL
Serum Ca2+ ([2]; 5-day treatment, 5 μg/kg, statistically different than vehicle (p < 0.01)): 10.5 ± 0.6 mg/dL
pEC50 [3]: 7.52 to 8.00
pEC50 [4]: 8.70
pEC50 [5]: 8.00 to 8.10

Cc1cc(C2(c3ccc(OCC(=O)C(C)(C)C)c(C)c3)CCCCC2)ccc1OCC(=O)C(C)(C)C [Compound 4, 1,1-bis[3-methyl-4-(3,3-dimethyl-2-oxobutoxy)phenyl]cyclohexane]
pIC50 [6]: < 5.00
pEC50 [7]: 5.66
serum calcium levels / hypercalcemia (FIG. 1B) [8]: hypercalcemia was not observed; also recorded: normal serum calcium levels
pEC50 [1]: 5.70
Ratio 24(OH)ase/Ca2+ ([9]; 3-day treatment, 10 mg/kg): 1.48
Ratio 24(OH)ase/Ca2+ increase ([9]; 3-day treatment, 10 mg/kg): 16.9
Relative 24(OH)ase activity ([9]; 3-day treatment, 10 mg/kg): 13.5
Ratio 24(OH)ase/Ca2+ ([9]; 3-day treatment, 30 mg/kg): 1.18
Ratio 24(OH)ase/Ca2+ increase ([9]; 3-day treatment, 30 mg/kg): 15.1
Relative 24(OH)ase activity ([9]; 3-day treatment, 30 mg/kg): 10.6
Ratio 24(OH)ase/Ca2+ ([9]; 5-day treatment, 10 mg/kg): 3.38
Ratio 24(OH)ase/Ca2+ increase ([9]; 5-day treatment, 10 mg/kg): 61.6
Relative 24(OH)ase activity ([9]; 5-day treatment, 10 mg/kg): 30.8
Ratio 24(OH)ase/Ca2+ ([9]; 5-day treatment, 30 mg/kg): 5.31
Ratio 24(OH)ase/Ca2+ increase ([9]; 5-day treatment, 30 mg/kg): 35.8
Relative 24(OH)ase activity ([9]; 5-day treatment, 30 mg/kg): 53.7
separation of target gene induction from serum calcium ([9]; mice, vs 1,25(OH)2 D3): greater separation of these effects for 4 than for 1,25(OH)2 D3; also recorded: good separation of target gene regulation from serum calcium elevation
Serum Ca2+ ([2]; 3-day treatment, 10 mg/kg): 9.1 ± 0.5 mg/dL
Serum Ca2+ ([2]; 3-day treatment, 30 mg/kg): 9.0 ± 0.6 mg/dL
Serum Ca2+ ([2]; 5-day treatment, 10 mg/kg): 9.1 ± 0.2 mg/dL
Serum Ca2+ ([2]; 5-day treatment, 30 mg/kg): 10.1 ± 0.5 mg/dL
pKi [10]: < 5.00
Average animal weight change per group ([11]; 3 mg/kg): -2.1%
Average animal weight change per group ([11]; 10 mg/kg): -8.9%
pEC50 [3]: 6.30
pEC50 [4]: 5.70
tumor growth rate vs control group ([12]; 3 mg/kg and 10 mg/kg oral gavage daily): decreased tumor growth rates as compared to the control group
tumor size vs vehicle (FIG. 1A) ([12]; 10 and 15 days post dosing): smaller
pEC50 [5]: 5.70

CCC(CC)(c1ccc(OCC(=O)C(C)(C)C)c(C)c1)c1ccc(OCC(=O)C(C)(C)C)c(C)c1 [Compound 7, 3,3-bis[3-methyl-4-(3,3-dimethyl-2-oxobutoxy)phenyl]pentane]
pIC50 [6]: < 5.00
pEC50 [7, 13]: 6.22
pEC50 [1]: 6.10
Ratio 24(OH)ase/Ca2+ ([9]; 3-day treatment, 100 μg/kg): 0.63
Ratio 24(OH)ase/Ca2+ increase ([9]; 3-day treatment, 100 μg/kg): 5.17
Relative 24(OH)ase activity ([9]; 3-day treatment, 100 μg/kg): 6.0
Ratio 24(OH)ase/Ca2+ ([9]; 3-day treatment, 500 μg/kg): 0.52
Ratio 24(OH)ase/Ca2+ increase ([9]; 3-day treatment, 500 μg/kg): 1.88
Relative 24(OH)ase activity ([9]; 3-day treatment, 500 μg/kg): 6.0
Serum Ca2+ ([2]; 3-day treatment, 100 μg/kg): 9.6 ± 0.5 mg/dL
Serum Ca2+ ([2]; 3-day treatment, 500 μg/kg, statistically different than vehicle (p < 0.01)): 11.5 ± 0.9 mg/dL
pKi [10]: < 5.00
pEC50 [3]: 6.30
pEC50 [4]: 6.52
pEC50 [5]: 6.10

CCC(CC)(c1ccc(OCC(=O)C(C)(C)C)c(C)c1)c1ccc(OCC2CO2)c(C)c1 (stereo not drawn) [Compound 9, 3-[3-methyl-4-(2,3-epoxypropoxy)phenyl]-3-[3-methyl-4-(3,3-dimethyl-2-oxobutoxy)phenyl]pentane]
pIC50 [6]: < 5.00
pEC50 [7, 13]: 7.22
pEC50 [1]: 6.82
pKi [10]: < 5.00
pEC50 [3]: 6.70
pEC50 [4]: 7.00
pEC50 [5]: 6.82

CCC(CC)(c1ccc(OCC(=O)C(C)(C)C)c(C)c1)c1ccc(OCC(O)C(C)(C)C)c(C)c1 (stereo not drawn) [Compound 11, 3-[3-methyl-4-(2-hydroxy-3,3-dimethylbutoxy)phenyl]-3-[3-methyl-4-(3,3-dimethyl-2-oxobutoxy)phenyl]pentane]
pIC50 [6]: < 5.00
pEC50 [7]: 6.40
pEC50 [1]: 6.30
pKi [10]: < 5.00
pEC50 [4]: 6.30
pEC50 [5]: 6.40

CCC(CC)(c1ccc(OCC(O)CO)c(C)c1)c1ccc(OCC(O)C(C)(C)C)c(C)c1 (stereo not drawn) [Compound 13, 3-[3-methyl-4-(2,3-dihydroxypropoxy)phenyl]-3-[3-methyl-4-(2-hydroxy-3,3-dimethylbutoxy)phenyl]pentane]
pIC50 [6]: < 5.00
pEC50 [1]: 7.30 to 7.52
pEC50 [3]: 7.30 to 7.52
pEC50 [4]: 7.70
pEC50 [5]: 7.30 to 7.52
